According to the CheMixHub viscosity set:

Assay: xn = mol fraction of the nth substance listed

OC1CCCCCCC1 + OCCO
viscosity [mPa·s], 100 kPa
Conditions | 293.15 K | 298.15 K | 303.15 K | 308.15 K | 313.15 K | 318.15 K
x1 = 0.0094 | 20.68 | 16.94 | 13.8 | 11.25 | 9.588 | 7.888
x1 = 0.0394 | 21.39 | 17.13 | 13.91 | 11.23 | 9.61 | 7.891
x1 = 0.0577 | 21.55 | 17.25 | 13.99 | 11.26 | 9.627 | 7.892
x1 = 0.0877 | 21.87 | 17.42 | 14.13 | 11.32 | 9.649 | 7.894
x1 = 0.0999 | 21.97 | 17.51 | 14.16 | 11.34 | 9.664 | 7.895
x1 = 0.196 | 23.21 | 18.26 | 14.61 | 11.54 | 9.751 | 7.903
x1 = 0.3048 | 24.11 | 20.09 | 15.23 | 11.92 | 9.992 | 7.975
x1 = 0.3968 | 28.39 | 21.73 | 16.84 | 13.28 | 11.14 | 9.079
x1 = 0.4992 | 32.09 | 25.61 | 20.38 | 16.11 | 13.47 | 10.83
x1 = 0.5876 | 42.39 | 31.92 | 25.48 | 19.91 | 16.45 | 13.04
x1 = 0.6991 | 59.53 | 45.81 | 35.59 | 27 | 21.75 | 16.79
x1 = 0.7995 | 87.86 | 66.12 | 49.1 | 35.98 | 28.14 | 21.15
x1 = 0.8976 | 130 | 94 | 71 | 49.5 | 39 | 28

C1=CCCCC1 + c1ccccc1
303.15 K, 101 kPa
Conditions | viscosity [mPa·s]
x1 = 0.1198 | 0.57
x1 = 0.2756 | 0.568
x1 = 0.3442 | 0.569
x1 = 0.4509 | 0.566
x1 = 0.4904 | 0.566
x1 = 0.6697 | 0.568
x1 = 0.7561 | 0.568
x1 = 0.8665 | 0.571

CC1CCCCC1 + c1ccccc1
303.15 K, 101 kPa
Conditions | viscosity [mPa·s]
x1 = 0.203 | 0.5138
x1 = 0.2997 | 0.5057
x1 = 0.4008 | 0.5059
x1 = 0.5041 | 0.5117
x1 = 0.604 | 0.5205
x1 = 0.7992 | 0.5611
x1 = 0.9027 | 0.5961

CCCCCl + c1ccccc1
viscosity [mPa·s], 101 kPa
Conditions | 298.15 K | 308.15 K | 318.15 K | 323.15 K
x1 = 0.098 | 0.557 | 0.492 | 0.437 | 0.417
x1 = 0.153 | 0.542 | 0.481 | 0.428 | 0.404
x1 = 0.8 | 0.454 | – | – | 0.358

CCCNCCC + c1ccccc1
viscosity [mPa·s], 101 kPa
Conditions | x1 = 0.0105 | x1 = 0.02072 | x1 = 0.0306 | x1 = 0.03896 | x1 = 0.05078 | x1 = 0.06138 | x1 = 0.07232 | x1 = 0.08121 | x1 = 0.09171
303.15 K | 0.5622 | 0.5617 | 0.561 | 0.5607 | 0.5602 | 0.5588 | 0.5575 | 0.5554 | 0.5542
313.15 K | 0.4915 | 0.4902 | 0.4897 | 0.489 | 0.488 | 0.4872 | 0.4861 | 0.4851 | 0.4839

CCOC(=O)c1ccccc1 + c1ccccc1
298.15 K, 101 kPa
Conditions | viscosity [mPa·s]
x1 = 0.1302 | 0.7244
x1 = 0.3809 | 1.018
x1 = 0.522 | 1.2
x1 = 0.6112 | 1.327
x1 = 0.7595 | 1.557
x1 = 0.848 | 1.709

Cc1cccc([N+](=O)[O-])c1 + c1ccccc1
303.15 K, 101.33 kPa
Conditions | viscosity [mPa·s]
x1 = 0.2 | 0.7
x1 = 0.395 | 0.85
x1 = 0.599 | 1.09
x1 = 0.804 | 1.44

CNS(C)(=O)=O + c1ccncc1
303.15 K, 101.33 kPa
Conditions | viscosity [mPa·s]
x1 = 0.1002 | 1.039
x1 = 0.1975 | 1.31
x1 = 0.2809 | 1.61
x1 = 0.403 | 2.214
x1 = 0.5037 | 2.832
x1 = 0.5728 | 3.346
x1 = 0.7024 | 4.52
x1 = 0.8 | 5.676
x1 = 0.894 | 6.925

O=C(Nc1ccccc1)c1ccccc1 + c1ccncc1
298.15 K, 101 kPa
Conditions | viscosity [mPa·s]
x1 = 0.0224 | 1.027
x1 = 0.0382 | 1.121
x1 = 0.05536 | 1.252

CCCC[n+]1ccn(C)c1.N#C[S-] + c1ccsc1
100 kPa
Conditions | viscosity [mPa·s]
298.15 K, x1 = 0.754 | 31.95
308.15 K, x1 = 0.857 | 28.75
